Among the data in PubChem BioAssay (NCI) are GI50 and TGI values, retold here.

Structures are written as SMILES.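 Five concentrations, 48 hours, 96-well plates. At the GI50, growth is halved. The concentration for full growth arrest is given as TGI.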

Some test systems named below: SW-620 colon; LOX IMVI melanoma; K-562 leukemia; RXF 393 renal; DU-145 prostate; NCI-H460 lung; HCT-15 colon; EKVX NSCLC; MOLT-4 leukemia; HS 578T breast.
Holding throughout (experiment): NCI tumour cell line growth inhibition, 48 h

Take `CN(C)c1cc(NN=C(c2ccc(O)cc2)c2ccc(O)cc2)c([N+](=O)[O-])cc1[N+](=O)[O-]`: the GI50 is 11.4 µM with SW-620 colon; 3.04 µM with LOX IMVI melanoma; 3.61 µM with K-562 leukemia; 11.3 µM in the experiment with RXF 393 renal; 10.2 µM in the experiment on DU-145 prostate; 4.36 µM in the experiment on NCI-H460 lung. The GI50 is 4.02 µM with HCT-15 colon, 5.49 µM in the experiment on EKVX NSCLC and 3.37 µM with MOLT-4 leukemia. For the same compound, the TGI is 24.2 µM in the experiment on SW-620 colon; 15.2 µM in the experiment with LOX IMVI melanoma; greater than 100 µM with K-562 leukemia; 26.9 µM in the experiment with RXF 393 renal; 23.6 µM in the experiment with DU-145 prostate; 15.9 µM with NCI-H460 lung. Further, the TGI in the experiment on HCT-15 colon turned out to be 17.7 µM; in the experiment on EKVX NSCLC, 18.1 µM; in the experiment on MOLT-4 leukemia it was 23.2 µM.
`CCN(Cc1ccc(F)cc1)c1cc(Cl)c(CO)c(Cl)c1`: the GI50 was 12.2 µM in the experiment with HS 578T breast; 13.7 µM in the experiment on SW-620 colon; 14.7 µM in the experiment with LOX IMVI melanoma; 15.9 µM in the experiment on K-562 leukemia; 8.71 µM with RXF 393 renal; 16.8 µM with DU-145 prostate. The GI50 was 11.8 µM in the experiment on NCI-H460 lung, 15.7 µM in the experiment on HCT-15 colon and 16.6 µM in the experiment on MOLT-4 leukemia. Further, the TGI in the experiment on HS 578T breast was 33.4 µM; in the experiment with SW-620 colon it was 30.4 µM; with LOX IMVI melanoma, 29.3 µM; in the experiment with K-562 leukemia, 51.6 µM; in the experiment with RXF 393 renal, 21.6 µM; in the experiment on DU-145 prostate, 31.6 µM. The TGI in the experiment with NCI-H460 lung stood at 25.9 µM; with HCT-15 colon it was 36.6 µM; with MOLT-4 leukemia, 44 µM.
With `Oc1[nH]c2ccccc2c1N=Nc1nc(-c2ccc(Br)cc2)cs1`, the TGI in the experiment with HS 578T breast is 65 µM; in the experiment with SW-620 colon, greater than 100 µM; with LOX IMVI melanoma it was 33.1 µM; in the experiment with RXF 393 renal it was greater than 100 µM; in the experiment on DU-145 prostate it was 68 µM; with NCI-H460 lung, 65.8 µM. Moreover, the TGI with HCT-15 colon was 68.3 µM; in the experiment with EKVX NSCLC, 30.4 µM; in the experiment with MOLT-4 leukemia, greater than 100 µM.
For the compound `COc1cc(-c2ccc3cc(OC)c(OC)c(OC)c3c2)cc(OC)c1OC`, the GI50 was 15.4 µM in the experiment on HS 578T breast; greater than 100 µM with LOX IMVI melanoma; 5.07 µM with K-562 leukemia; 5.91 µM in the experiment with RXF 393 renal; greater than 100 µM with DU-145 prostate; 6.03 µM in the experiment with HCT-15 colon. The GI50 in the experiment on MOLT-4 leukemia is greater than 100 µM. Further, the TGI is greater than 100 µM with HS 578T breast; greater than 100 µM in the experiment on LOX IMVI melanoma; greater than 100 µM in the experiment on K-562 leukemia; 44 µM with RXF 393 renal; greater than 100 µM with DU-145 prostate; greater than 100 µM with HCT-15 colon. In the experiment with MOLT-4 leukemia, this compound displayed a TGI greater than 100 µM.
On to `Nc1ccc(C2=NNC(=O)Cc3cc4c(cc32)OCCO4)cc1Cl`, for which the GI50 with HS 578T breast is 4.33 µM; in the experiment with SW-620 colon it was 2.01 µM; in the experiment on LOX IMVI melanoma it was 2.95 µM; with RXF 393 renal, 5.27 µM; in the experiment on DU-145 prostate it was 11.4 µM; in the experiment on NCI-H460 lung it was 1.94 µM. Moreover, the figures for the GI50 with HCT-15 colon, with EKVX NSCLC and with MOLT-4 leukemia were 2.49 µM, 12.7 µM and 3.05 µM, respectively. The TGI in the experiment on HS 578T breast is 25 µM; in the experiment on SW-620 colon, greater than 50 µM; with LOX IMVI melanoma, greater than 50 µM; with RXF 393 renal, 19.3 µM; in the experiment with DU-145 prostate it was greater than 50 µM; in the experiment on NCI-H460 lung, greater than 50 µM. Also, the TGI in the experiment with HCT-15 colon, with EKVX NSCLC and in the experiment with MOLT-4 leukemia was greater than 50 µM in each case.
Turning to `O=C1CN(c2cccc(Cl)c2)C(=O)CN1CCN1CC(=O)N(c2cccc(Cl)c2)CC1=O`, the TGI in the experiment on HS 578T breast, in the experiment with SW-620 colon, in the experiment on RXF 393 renal, with DU-145 prostate, with NCI-H460 lung and in the experiment on HCT-15 colon was greater than 100 µM in each case. The TGI in the experiment with EKVX NSCLC and in the experiment with MOLT-4 leukemia was greater than 100 µM each time.
For `O=S(=O)(c1ccccc1)N1CCN(S(=O)(=O)c2ccccc2)c2ccccc21`, the TGI in the experiment on HS 578T breast, with SW-620 colon, with LOX IMVI melanoma, in the experiment on K-562 leukemia, with RXF 393 renal and with DU-145 prostate was greater than 100 µM throughout. Further, the TGI in the experiment on NCI-H460 lung is greater than 100 µM; with HCT-15 colon, greater than 100 µM; with EKVX NSCLC, 80.1 µM.
For the compound `CCOC(=S)SCC(=O)O`, the TGI in the experiment with HS 578T breast, with SW-620 colon, in the experiment on LOX IMVI melanoma, in the experiment on K-562 leukemia, with RXF 393 renal and in the experiment with NCI-H460 lung was greater than 100 µM in each case. Besides, the TGI with HCT-15 colon, in the experiment with EKVX NSCLC and in the experiment on MOLT-4 leukemia was greater than 100 µM each time.
As to `CCC(=C/[C@H](C)C/C=C/C(C)=C/[C@@H](C)C(=O)[C@@H](C)[C@H](O)[C@@H](C)CC)/C=C/[C@H]1OC(=O)C=C[C@@H]1C`, the GI50 in the experiment with HS 578T breast, in the experiment with SW-620 colon, with LOX IMVI melanoma, with K-562 leukemia, in the experiment with DU-145 prostate and with NCI-H460 lung was less than 0.01 µM in each case. For the same compound, the GI50 with HCT-15 colon, in the experiment with EKVX NSCLC and in the experiment on MOLT-4 leukemia was less than 0.01 µM in each case. Also, the TGI is 1.62 µM in the experiment on HS 578T breast; 1.32 µM in the experiment on SW-620 colon; 1.23 µM in the experiment with LOX IMVI melanoma; 4.56 µM in the experiment on DU-145 prostate; 1.88 µM in the experiment on NCI-H460 lung; 1.28 µM in the experiment with HCT-15 colon. Also, the TGI in the experiment on EKVX NSCLC stood at 5.21 µM; in the experiment on MOLT-4 leukemia it was 0.114 µM.
Regarding `Nc1ccccc1SC(CC(=O)c1ccccc1)c1cccc([N+](=O)[O-])c1` (stereo not drawn), the GI50 with HS 578T breast was 21.5 µM; in the experiment with SW-620 colon, 3.03 µM; with LOX IMVI melanoma it was 1.99 µM; with K-562 leukemia it was 3.72 µM; with RXF 393 renal, 15 µM; in the experiment with DU-145 prostate, 14.7 µM. Also, the GI50 was 19.4 µM with NCI-H460 lung, 11.5 µM in the experiment with HCT-15 colon and 17.6 µM in the experiment on MOLT-4 leukemia. The TGI was 57.3 µM in the experiment with HS 578T breast; 12.2 µM with SW-620 colon; 4.07 µM in the experiment on LOX IMVI melanoma; 13.6 µM with K-562 leukemia; 28.6 µM in the experiment with RXF 393 renal; 28 µM with DU-145 prostate. Also, the TGI in the experiment with NCI-H460 lung amounted to 38.8 µM; in the experiment on HCT-15 colon, 28.4 µM; in the experiment on MOLT-4 leukemia, 50.5 µM.
